# According to patent publication US7795228B2, “Spiroheterocyclic glycosides and methods of use” (Theracos, Inc., priority 2006, dated 2010):
# Columns and labels:
# human SGLT1 = biological target: T1, human SGLT1 (Homo sapiens, UniProt P13866); assay: Methyl-α-D-[U-14C]glucopyranoside uptake assay, human SGLT1 expressing cells; assay type: cell-based; details: COS-7 cells expressing human SGLT1, 2 h incubation
# T1 construct: Full-length human SGLT1 cDNA on pDream2.1 expression vector was obtained from GenScript Corporation; host or cells: COS-7 cells
# T1 sequence (P13866 1-664): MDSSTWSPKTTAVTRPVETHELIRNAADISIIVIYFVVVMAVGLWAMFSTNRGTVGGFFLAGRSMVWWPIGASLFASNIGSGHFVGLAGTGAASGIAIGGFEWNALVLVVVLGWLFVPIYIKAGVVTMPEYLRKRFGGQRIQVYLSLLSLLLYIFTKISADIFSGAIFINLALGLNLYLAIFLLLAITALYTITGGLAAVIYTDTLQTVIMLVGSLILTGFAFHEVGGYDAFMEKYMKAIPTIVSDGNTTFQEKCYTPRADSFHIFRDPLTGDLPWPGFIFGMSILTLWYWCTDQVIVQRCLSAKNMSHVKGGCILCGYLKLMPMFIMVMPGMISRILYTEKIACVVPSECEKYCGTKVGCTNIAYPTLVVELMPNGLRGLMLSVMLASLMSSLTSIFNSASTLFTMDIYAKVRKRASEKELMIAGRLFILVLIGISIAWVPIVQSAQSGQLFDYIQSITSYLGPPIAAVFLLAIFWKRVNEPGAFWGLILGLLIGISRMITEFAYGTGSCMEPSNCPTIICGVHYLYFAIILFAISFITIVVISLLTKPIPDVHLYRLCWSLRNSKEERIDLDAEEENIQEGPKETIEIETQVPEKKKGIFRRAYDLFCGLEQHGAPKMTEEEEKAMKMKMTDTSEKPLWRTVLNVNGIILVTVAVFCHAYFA
# Experimental: Full-length human SGLT1 cDNA on pDream2.1 expression vector was obtained from GenScript Corporation and propagated in Escherichia coli strain DH5α using Luria-Bertani (LB) medium containing ampicillin. Plasmid DNA was isolated using the QIAGEN Plasmid Midi Kit (QIAGEN Inc.). […] Transfected cells were stored in DMEM containing 10% dimethyl sulfoxide (DMSO) at −80° C.
# (§1) Cells expressing SGLT1 or SGLT2 were seeded on 96-well ScintiPlate scintillating plates (PerkinElmer, Inc.) in DMEM containing 10% FBS (1×10^5 cells per well in 100 μl medium) incubated at 37° C. under 5% CO2 for 48 h prior to the assay. Cells were washed twice with 150 μl of either sodium buffer (137 mM NaCl, 5.4 mM KCl, 2.8 mM CaCl2, 1.2 mM MgCl2, 10 mM tris(hydroxymethyl)aminomethane/N-2-hydroxyethylpiperazine-N′-ethanesulfonic acid [Tris/Hepes], pH 7.2) or sodium-free buffer (137 mM N-methyl-glucamine, 5.4 mM KCl, 2.8 mM CaCl2, 1.2 mM MgCl2, 10 mM Tris/Hepes, pH 7.2). Test compound in 50 μl each of sodium or sodium-free buffer containing 40 μCi/ml methyl-α-D-[U-^14C] glucopyranoside (Amersham Biosciences/GE Healthcare), either with (symbols in parentheses) or without (symbols without parentheses) 25% human serum, was added per well of a 96-well plate and incubated at 37° C. with shaking for either 2 h (SGLT1 assay) or 1.5 h (SGLT2 assay). Cells were washed twice with 150 μl of wash buffer (137 mM N-methylglucamine, 10 mM Tris/Hepes, pH 7.2) and methyl-α-D-[U-^14C]glucopyranoside uptake was quantitated using a TopCount scintillation counter (PerkinElmer, Inc.). Sodium-dependent glucopyranoside uptake was measured by subtracting the values obtained with sodium-free buffer from those obtained using sodium buffer (average of triplicate determinations).
# human SGLT2 = biological target: T2, human SGLT2 (Homo sapiens, UniProt P31639); assay: Methyl-α-D-[U-14C]glucopyranoside uptake assay, cells stably expressing human SGLT2; assay type: cell-based; details: HEK293.ETN cells expressing human SGLT2, 1.5 h incubation
# T2 construct: A full-length cDNA clone expressing human SGLT2 (GenScript Corporation)
# T2 sequence (P31639 1-672): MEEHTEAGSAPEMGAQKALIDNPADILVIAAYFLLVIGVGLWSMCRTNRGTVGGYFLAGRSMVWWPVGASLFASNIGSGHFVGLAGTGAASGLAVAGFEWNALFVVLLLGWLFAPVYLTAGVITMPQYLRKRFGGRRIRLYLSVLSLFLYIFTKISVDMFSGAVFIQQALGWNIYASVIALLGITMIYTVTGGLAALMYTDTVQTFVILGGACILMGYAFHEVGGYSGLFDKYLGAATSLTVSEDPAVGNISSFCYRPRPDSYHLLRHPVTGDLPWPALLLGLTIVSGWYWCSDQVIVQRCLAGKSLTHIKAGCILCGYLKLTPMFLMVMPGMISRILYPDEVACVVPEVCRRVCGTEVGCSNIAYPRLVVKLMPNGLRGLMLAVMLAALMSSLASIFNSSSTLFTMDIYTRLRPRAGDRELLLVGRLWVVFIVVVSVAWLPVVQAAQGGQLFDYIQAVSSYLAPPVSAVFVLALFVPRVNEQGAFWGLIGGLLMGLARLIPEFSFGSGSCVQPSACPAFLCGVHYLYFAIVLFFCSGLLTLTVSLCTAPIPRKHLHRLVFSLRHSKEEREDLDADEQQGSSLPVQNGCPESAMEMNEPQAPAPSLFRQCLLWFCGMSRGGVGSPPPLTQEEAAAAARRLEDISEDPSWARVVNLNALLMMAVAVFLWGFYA
# Text: A full-length cDNA clone expressing human SGLT2 (GenScript Corporation) was subcloned into Hind III and Not I sites of pEAK15 expression vector. Clones harboring the cDNA inserts were identified by restriction analysis.
# Plasmid containing human SGLT2 was linearized with Nsi I and purified by agarose gel electrophoresis. Using Lipofectamine 2000 Transfection Reagent (Invitrogen Corporation), DNA was transfected into HEK293.ETN cells and cultured in Dulbecco's Modified Eagle Medium (DMEM) containing 10% fetal bovine serum (FBS) at 37° C. under 5% CO2 for 24 h. Transfectants were selected in the same growth medium supplemented with puromycin (Invitrogen Corporation) for two weeks. Puromycin-resistant cells were recovered and seeded on a fresh 96-well plate (single cell per well) and cultured in the presence of puromycin until cells became confluent. Puromycin-resistant clones were evaluated for SGLT2 activity in the methyl-α-D-[U-^14C]glucopyranoside uptake assay described below.
# as §1
# [1] = with 25% human serum (symbols in parentheses)
# [2] = without human serum (symbols without parentheses)
IC50 (human SGLT1; [1]) [µM],IC50 (human SGLT2; [1]) [µM],IC50 (human SGLT1; [2]) [µM],IC50 (human SGLT2; [2]) [µM],SMILES
10 to 100,< 1,–,–,"CCc1ccc(Cc2cc3c(cc2Cl)OC[C@]32O[C@H](CO)[C@@H](O)[C@H](O)[C@H]2O)cc1 [Compound 30, (2′R,3′R,4′S,5′S,6′R)-6-chloro-5-(4-ethylbenzyl)-6′-(hydroxymethyl)-3′,4′,5′,6′-tetrahydro-2H-spiro[benzofuran-3,2′-pyran]-3′,4′,5′-triol]"
> 100,< 1,–,–,"CCc1ccc(Cc2cc3c(cc2Cl)OC(C)C[C@]32O[C@H](CO)[C@@H](O)[C@H](O)[C@H]2O)cc1 (stereo partly drawn) [Compound 47, (2′S,3′R,4′S,5′S,6′R)-7-chloro-6-(4-ethylbenzyl)-6′-(hydroxymethyl)-2-methyl-3′,4′,5′,6′-tetrahydrospiro[chroman-4,2′-pyran]-3′,4′,5′-triol]"
–,–,> 100,< 1,"CCc1ccc(Cc2cc3c(cc2Cl)OC(O)C[C@]32O[C@H](CO)[C@@H](O)[C@H](O)[C@H]2O)cc1 (stereo partly drawn) [Compound 44, (2′S,3′R,4′S,5′S,6′R)-7-chloro-6-(4-ethylbenzyl)-6′-(hydroxymethyl)-3′,4′,5′,6′-tetrahydrospiro[chroman-4,2′-pyran]-2,3′,4′,5′-tetraol]"
–,–,> 100,< 1,"CCc1ccc(Cc2cc3c(cc2Cl)OC(OC)C[C@]32O[C@H](CO)[C@@H](O)[C@H](O)[C@H]2O)cc1 (stereo partly drawn) [Compound 43, (2′S,3′R,4′S,5′S,6′R)-7-chloro-6-(4-ethylbenzyl)-6′-(hydroxymethyl)-2-methoxy-3′,4′,5′,6′-tetrahydrospiro[chroman-4,2′-pyran]-3′,4′,5′-triol]"

# Continued, molecule first:
SMILES,IC50 (human SGLT1; [1]) [µM],IC50 (human SGLT2; [1]) [µM],IC50 (human SGLT1; [2]) [µM],IC50 (human SGLT2; [2]) [µM]
"CCc1ccc(Cc2cc3c(cc2Cl)OC(C)(CO)C[C@]32O[C@H](CO)[C@@H](O)[C@H](O)[C@H]2O)cc1 (stereo partly drawn) [Compound 52, (2′S,3′R,4′S,5′S,6′R)-7-chloro-6-(4-ethylbenzyl)-2,6′-bis(hydroxymethyl)-2-methyl-3′,4′,5′,6′-tetrahydrospiro[chroman-4,2′-pyran]-3′,4′,5′-triol]",> 100,< 1,–,–
"CCc1ccc(Cc2ccc3c(c2)[C@]2(CCO3)O[C@H](CO)[C@@H](O)[C@H](O)[C@H]2O)cc1 [Compound 12, (2′S,3′R,4′S,5′S,6′R)-6-(4-ethylbenzyl)-6′-(hydroxymethyl)-3′,4′,5′,6′-tetrahydrospiro[chroman-4,2′-pyran]-3′,4′,5′-triol]",–,–,> 100,< 1
"CCc1ccc(Cc2cc3c(cc2Cl)OC(C)(C)C[C@]32O[C@H](CO)[C@@H](O)[C@H](O)[C@H]2O)cc1 [Compound 57, (2′S,3′R,4′S,5′S,6′R)-7-chloro-6-(4-ethylbenzyl)-6′-(hydroxymethyl)-2,2-dimethyl-3′,4′,5′,6′-tetrahydrospiro[chroman-4,2′-pyran]-3′,4′,5′-triol]",> 100,< 1,–,–
"CCc1ccc(Cc2cc3c(cc2Cl)OCC[C@]32O[C@H](CO)[C@@H](O)[C@H](O)[C@H]2O)cc1 [Compound 20, (2′S,3′R,4′S,5′S,6′R)-7-chloro-6-(4-ethylbenzyl)-6′-(hydroxymethyl)-3′,4′,5′,6′-tetrahydrospiro[chroman-4,2′-pyran]-3′,4′,5′-triol]",–,–,10 to 100,< 1
"CCc1ccc(Cc2cc3c(cc2Cl)OCCC[C@]32O[C@H](CO)[C@@H](O)[C@H](O)[C@H]2O)cc1 [Compound 38, (2′S,3′R,4′S,5′S,6′R)-8-chloro-7-(4-ethylbenzyl)-6′-(hydroxymethyl)-3,3′,4,4′,5′,6′-hexahydro-2H-spiro[benzo[b]oxepine-5,2′-pyran]-3′,4′,5′-triol]",10 to 100,< 1,–,–
